Here are results for 27 molecules from patent US9540358B2, “Tricyclic compounds as anticancer agents” (ICAHN SCHOOL OF MEDICINE AT MOUNT SINAI, priority 2011, dated 2017).

For one assay, the system named is H1650 lung cancer cells. The assay is described as follows: Cell viability assay (MTT, IC50 determination). In kind it is cell-based. The note with it: 48 hours after drug treatment, MTT. How it is done: 89(22): p. […] H1650 lung cancer cells were plated at 150,000 cells per well in a 12 well plate. Twenty-four hours after plating, cells were treated as described with increasing concentrations of drug and control. Forty-eight hours after drug treatment, cells were treated with 100 μL of 3-(4,5-Dimethylthiazol-2-yl)-2,5-diphenyltetrazolium bromide (MTT) and incubated for 2 hours at 37 C. The MTT solution was subsequently replaced with 300 μL of n-propyl alcohol and re-aliquoted to a 96 well plates. Spectrophotometric analysis of each solution was performed using a 96 well plate reader at 600 nm in triplicate.
`CC(=O)Nc1nc(C)c(S(=O)(=O)NCCCN2c3ccccc3CCc3ccccc32)s1` [Example 82, N-(5-(N-(3-(10,11-dihydro-5H-dibenzo[b,f]azepin-5-yl)propyl)sulfamoyl)-4-methylthiazol-2-yl)acetamide]: the “IC50 (Cell Viability Data)” value is recorded as “INACTIVE”.

For `COC(=O)NCCN1c2ccccc2Sc2ccc(Cl)cc21` [Example 83], the “IC50 (Cell Viability Data)” value is reported as “INACTIVE”.

The assay is the same for the next values; noted with them: Homo sapiens, NCI-H1650, 48 hours after drug treatment, MTT.
For the molecule `O=S(=O)(NCCN1c2ccccc2Sc2ccc(Cl)cc21)c1ccc(C(F)(F)F)cc1` [Example 41, 4-trifluoromethyl-N-(2-(2-chloro-10H-phenothiazin-10-yl)ethyl)benzenesulfonamide], the IC50 is ~25 µM.

In the case of `O=S(=O)(NCCCN1c2ccccc2CCc2ccc(Cl)cc21)c1cc(Cl)c(Cl)s1` [Example 61, 4,5-dichloro-N-(3-(3-chloro-10,11-dihydro-5H-dibenzo[b,f]azepin-5-yl)propyl)thiophene-2-sulfonamide], the half-inhibitory concentration (IC50) was ~20 µM.

Turning to `O=S(=O)(NCCCN1c2ccccc2CCc2ccc(Cl)cc21)c1ccc(F)cc1` [Example 20, N-(3-(3-chloro-10,11-dihydro-5H-dibenzo[b,f]azepin-5-yl)propyl)-4-fluorobenzenesulfonamide], the IC50 was > 40 µM.

For `O=S(=O)(NCCN1c2ccccc2Sc2ccc(Cl)cc21)c1ccc(OC(F)(F)F)cc1` [Example 42, 4-trifluoromethoxy-N-(2-(2-chloro-10H-phenothiazin-10-yl)ethyl)benzenesulfonamide], the 50% inhibitory concentration (IC50) is ~25 µM.

Consider `O=S(=O)(NCCC=C1c2ccccc2CCc2ccccc21)c1ccc(OC(F)(F)F)cc1` [Example 51, N-(3-(10,11-dihydro-5H-dibenzo[a,d][7]annulen-5-ylidene)propyl)-4-(trifluoromethoxy)benzenesulfonamide], for which the IC50 was ~20 µM.

Regarding `O=S(=O)(NCC(O)CN1c2ccccc2CCc2ccc(Cl)cc21)c1ccc(OC(F)(F)F)cc1` (stereo not drawn) [Example 58, 4-Trifluoromethoxy-N-(3-(3-chloro-10,11-dihydro-5H-dibenzo[b,f]azepin-5-yl)-2-hydroxypropyl)benzenesulfonamide], the IC50 is ~5 µM.

Take `O=S(=O)(NCCCN1c2ccccc2CCc2cc(Cl)ccc21)c1ccc(C(F)(F)F)cc1` [Example 38, N-(3-(2-chloro-10,11-dihydro-5H-dibenzo[b,f]azepin-5-yl)propyl)-4-(trifluoromethyl)benzenesulfonamide]: the half-maximal inhibitory concentration (IC50) is ~10 µM.

As for `O=S(=O)(NC1CCC(=C2c3ccccc3CCc3ccccc32)CC1)c1ccc(OC(F)(F)F)cc1` (stereo not drawn) [Example 79, N-(4-(10,11-dihydro-5H-dibenzo[a,d][7]annulen-5-ylidene)cyclohexyl)-4-(trifluoromethoxy)benzenesulfonamide], the IC50 is ~20 µM.

Molecule `N#Cc1ccc(S(=O)(=O)NCCCN2c3ccccc3Sc3ccc(Cl)cc32)cc1` [Example 14, N-(3-(2-chloro-10H-phenothiazin-10-yl)propyl)-4-cyanobenzenesulfonamide] registered a half-inhibitory concentration (IC50) of 40 µM.

Consider `O=S(=O)(NCCCN1c2ccccc2CCc2ccc(Cl)cc21)c1ccc(Cl)cc1Cl` [Example 26, 2,4-dichloro-N-(3-(3-chloro-10,11-dihydro-5H-dibenzo[b,f]azepin-5-yl)propyl)benzenesulfonamide], for which the half-maximal inhibitory concentration (IC50) was > 40 µM.

In the case of `O=S(=O)(NC1CCCC(=C2c3ccccc3CCc3ccccc32)C1)c1ccc(OC(F)(F)F)cc1` (stereo not drawn) [Example 77, N-(3-(10,11-dihydro-5H-dibenzo[a,d][7]annulen-5-ylidene)cyclohexyl)-4-(trifluoromethoxy)benzenesulfonamide], half-maximal inhibition (IC50) required 15 µM.

Take `O=S(=O)(NCCCN1c2ccccc2CCc2ccc(Cl)cc21)c1cccc(OC(F)(F)F)c1` [Example 54, N-(3-(3-chloro-10,11-dihydro-5H-dibenzo[b,f]azepin-5-yl)propyl)-3-(trifluoromethoxy)benzenesulfonamide]: the IC50 is ~15 µM.

In the case of `O=S(=O)(NCCCN1c2ccccc2CCc2ccc(Cl)cc21)c1ccccc1` [Example 45, N-(3-(3-chloro-10,11-dihydro-5H-dibenzo[b,f]azepin-5-yl)propyl)benzenesulfonamide], the IC50 was ~25 µM.

`O=S(=O)(NCCNC1c2ccccc2CCc2ccccc21)c1ccc(OC(F)(F)F)cc1` [Example 56, 4-Trifluoromethoxy-N-(2-((10,11-dihydro-5H-dibenzo[a,d][7]annulen-5-yl)amino)ethyl)benzenesulfonamide]: the IC50 is ~25 µM.

In the case of `CN(C)C(=O)NCCCN1c2ccccc2Sc2ccc(Cl)cc21` [Example 17, 3-(3-(2-Chloro-10H-phenothiazin-10-yl)propyl)-1,1-dimethylurea], the IC50 was > 50 µM.

Regarding `O=S(=O)(NCCC=C1c2ccccc2CCc2ccccc21)c1ccc(Cl)cc1` [Example 50, 4-Chloro-N-(3-(10,11-dihydro-5H-dibenzo[a,d][7]annulen-5-ylidene)propyl)benzenesulfonamide], the IC50 is ~15 µM.

Consider `O=S(=O)(NCCNC1c2ccccc2CCc2ccccc21)c1ccc(Cl)cc1` [Example 55, 4-Chloro-N-(2-((10,11-dihydro-5H-dibenzo[a,d][7]annulen-5-yl)amino)ethyl)benzenesulfonamide], for which the IC50 is ~25 µM.

Turning to `O=S(=O)(NC1CCC(=C2c3ccccc3CCc3ccccc32)CC1)c1ccc(Cl)cc1` (stereo not drawn) [Example 80, N-(4-(10,11-dihydro-5H-dibenzo[a,d][7]annulen-5-ylidene)cyclohexyl)-4-chlorobenzenesulfonamide], the IC50 was ~20 µM.

In the case of `O=S(=O)(NCCN1c2ccccc2CCc2ccc(Cl)cc21)c1ccc(Cl)cc1` [Example 33, 4-chloro-N-(2-(3-chloro-10,11-dihydro-5H-dibenzo[b,f]azepin-5-yl)ethyl)benzenesulfonamide], the IC50 is ~20 µM.

In the case of `O=S(=O)(NCCCN1c2ccccc2CCc2ccc(Cl)cc21)c1ccc(C(F)(F)F)cc1` [Example 21, N-(3-(3-chloro-10,11-dihydro-5H-dibenzo[b,f]azepin-5-yl)propyl)-4-(trifluoromethyl)benzenesulfonamide], the IC50 amounted to 15.3 µM.

In turn, `COC(=O)NCCCN1c2ccccc2Sc2ccc(Cl)cc21` [Example 4, Methyl (3-(2-chloro-10H-phenothiazin-10-yl)propyl)carbamate] returned an IC50 of 10 µM.

Turning to `O=S(=O)(NC1CCC(N2c3ccccc3CCc3ccccc32)C1)c1ccc(OC(F)(F)F)cc1` (stereo not drawn) [Example 76, N-(3-(10,11-dihydro-5H-dibenzo[b,f]azepin-5-yl)cyclopentyl)-4-(trifluoromethoxy)benzenesulfonamide], half-maximal inhibition (IC50) was put at 20 µM. This IC50 is about 2-fold higher than that of the molecule before.

Consider `O=S(=O)(NCCCN1c2ccccc2CCc2ccc(Cl)cc21)c1cccc(C(F)(F)F)c1` [Example 39, N-(3-(3-chloro-10,11-dihydro-5H-dibenzo[b,f]azepin-5-yl)propyl)-3-trifluoromethylbenzenesulfonamide], for which the IC50 is ~10 µM.

`O=S(=O)(NC1CCCC(=C2c3ccccc3CCc3ccccc32)C1)c1ccc(Cl)cc1` (stereo not drawn) [Example 78, N-(3-(10,11-dihydro-5H-dibenzo[a,d][7]annulen-5-ylidene)cyclohexyl)-4-chlorobenzenesulfonamide] returned an IC50 of 15 µM.

On to `CC(=O)Nc1ccc(S(=O)(=O)NCCCN2c3ccccc3CCc3ccc(Cl)cc32)cc1` [Example 88], for which the IC50 is ~20 µM.
